One assay has as its target T1, MMP-1 (Homo sapiens, UniProt P03956).
T1 sequence (P03956 100-469): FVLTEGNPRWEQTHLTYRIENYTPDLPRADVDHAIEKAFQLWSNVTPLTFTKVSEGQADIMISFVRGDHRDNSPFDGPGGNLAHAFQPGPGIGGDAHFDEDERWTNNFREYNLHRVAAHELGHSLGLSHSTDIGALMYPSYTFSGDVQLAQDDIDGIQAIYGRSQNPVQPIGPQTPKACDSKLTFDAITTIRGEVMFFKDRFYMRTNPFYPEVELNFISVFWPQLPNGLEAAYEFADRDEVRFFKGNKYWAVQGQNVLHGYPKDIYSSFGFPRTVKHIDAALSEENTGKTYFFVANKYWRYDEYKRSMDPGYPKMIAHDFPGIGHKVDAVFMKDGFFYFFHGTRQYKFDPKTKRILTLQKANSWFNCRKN
The experiment in a line: Automated MMP profiling assay (P218 quenched fluorescence), MMP-1. The class given is biochemical.

Another assay addresses T2, MMP-2 (Homo sapiens, UniProt P08253).
T2 sequence (P08253 110-660): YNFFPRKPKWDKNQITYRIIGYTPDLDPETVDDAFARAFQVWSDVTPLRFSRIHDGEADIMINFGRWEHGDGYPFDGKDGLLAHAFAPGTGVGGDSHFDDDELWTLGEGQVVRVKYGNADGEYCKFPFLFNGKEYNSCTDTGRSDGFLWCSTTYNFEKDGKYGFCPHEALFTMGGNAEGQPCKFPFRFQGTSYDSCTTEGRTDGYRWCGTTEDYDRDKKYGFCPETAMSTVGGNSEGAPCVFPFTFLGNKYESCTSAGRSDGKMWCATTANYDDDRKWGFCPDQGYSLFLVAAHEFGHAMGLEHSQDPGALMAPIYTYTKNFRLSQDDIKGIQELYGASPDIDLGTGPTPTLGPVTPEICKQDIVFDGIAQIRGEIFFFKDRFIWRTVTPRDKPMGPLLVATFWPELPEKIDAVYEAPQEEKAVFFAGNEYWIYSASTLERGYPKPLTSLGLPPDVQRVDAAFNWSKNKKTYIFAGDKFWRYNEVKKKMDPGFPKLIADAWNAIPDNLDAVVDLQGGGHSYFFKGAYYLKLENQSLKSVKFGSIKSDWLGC
Description: Automated MMP profiling assay (P218 quenched fluorescence), MMP-2. The class given is biochemical.

A further assay deals with MMP-3 (Homo sapiens, UniProt P08254). The experiment in a line: Automated MMP profiling assay (P218 quenched fluorescence), MMP-3. The class given is biochemical. The method, then: Truncated Prostromelysin-257 is expressed in a soluble form in E.coli as described by Marcy et al., Biochemistry, 30, 6476-6483, 1991. Soluble truncated prostromelysin is purified by a modification of the monoclonal antibody affinity chromatography method described by Housley et al., J. Biol. Chem., 268, 4481-87, 1993.
This assay was originally described by Knight et al., FEBS Letters, 296, 263-266, 1992, for a related substrate. The assay is run continuously in a 3.0ml cuvette using a Perkin-Elmer LS 50 B Spectrofluorimeter at 25 ^∞C in a final volume of 2.0 mls. P218 substrate (10mM) in 100% DMSO is diluted to a final concentration of 2.0 micromolar (µM) into assay buffer: 50mM MES, pH 6.5 containing 150mM NaCl, 10mM CaCl2, 0.005% Brij-35, and 1%(v/v) DMSO. Test compounds(10mM) in DMSO are diluted in assay buffer at an initial concentration of 10 to 100 micromolar. These are diluted to a final concentration in the assay from 10 nM to 1 µM depending upon their potency previously determined in primary thiopeptilide assay described above. The reaction is initiated by the addition of recombinant stromelysin (MMP-3) at a final concentration of 1.0 nM. Upon peptide cleavage, the fluorescent MCA group is detected using an excitation wavelength of 328 nanometers and an emission wavelength of 393 nanometers. The assay is linear from 0.2 to 5nM MMP-3 concentration and percent inhibition is calculated as described above for the primary thiopeptilide assay and IC50 values are determined by a linear regression analysis of percent inhibition versus log drug concentration. The peptide sequence of the MCA substrate, hereinafter designated P218, is shown below: [formula]
This assay is run with a protocol analogous to that reported for MMP-3 inhibition using the synthetic peptide P218 and each of the three enzymes and measuring quenched fluorescence. This assay can be run with each invention compound with the three enzymes MMP-3, MMP-9 and MMP-2 in parallel as adapted for a 96-well microtitre plate using a Hamilton AT ® workstation.

Another assay has as its target MMP-9 (Homo sapiens, UniProt P14780). Description: Automated MMP profiling assay (P218 quenched fluorescence), MMP-9. In kind it is biochemical. On the procedure: MMP-9 is isolated modifying the previously described procedures of Hibbs et al (J. Biol. Chem., 260, 2493-2500, 1984) and Wilhelm et al (J. Biol. Chem., 264, 17213-17221, 1989). Briefly, polymorphonuclear leukocytes (PMN) preparations are isolated as described above from 3 or more units of freshly drawn whole blood. Cells are resuspended in phosphate buffered saline (PBS) containing 100 ng/ml phorbol myristate acetate (PMA) in the presence of […] di-isopropylfluorophospate (DFP), 1 µg/ml leupeptin and aprotinin, and 1 mg/ml catalase for 1 hr at 37°C. Supernatants are collected by centrifugation (300 x g) and the samples are frozen at-70°C. All chromatographic methods are performed at 4°C. Thawed samples are concentrated 5-fold using an Amicon chamber equipped with a YM-10 membrane. The concentrate is pressure dialyzed against 0.02M Tris-HCl, 0.1 M NaCl, 1 mM CaCl2 , 1 µM ZnCl2, 0.001% Brij-35, 0.02% sodium azide (NaN3), pH 7.5 and applied to DEAE ion exchange chromatography resin which is previously equilibrated with the same buffer at a flow rate of 0.4 ml/min. The column is extensively washed with the same buffer and gelatinase is eluted as 4 ml fractions from the column with 0.02M Tris-HCl, 0.5 M NaCI, 1 mM CaCl2, 1 µM ZnCl2, 0.001% Brij-35, 0.02% NaN3, pH 7.5. Gelatinase containing fractions are observed by gelatin zymography (see below), loaded onto a gelatin agarose affinity resin and washed with the same buffer. […] The protein content associated with material is determined with a micro-BCA assay (Pierce, Rockford, IL), lyophilized and reconstituted to a desired working concentration (100 µg/ml).
This assay was originally described by Knight et al., FEBS Letters, 296, 263-266, 1992, for a related substrate. […] Upon peptide cleavage, the fluorescent MCA group is detected using an excitation wavelength of 328 nanometers and an emission wavelength of 393 nanometers. […]
This assay is run with a protocol analogous to that reported for MMP-3 inhibition using the synthetic peptide P218 and each of the three enzymes and measuring quenched fluorescence. […]

The next assay concerns Wistar rats. The experiment in a line: Subdural hematoma (SDH) model in rats, quantification of edema formation. In kind it is in vivo. Particulars: rat-SDH- model, dose of 0.3 mg/kg i.v., edema assessed 24 hours after surgery. On the procedure:
Wistar rats, weighting 200-250 g were used. Anaesthesia was induced with i.p. injection of 1.2 ml Ketavet (120 mg Ketamin) and 0.8 ml Rompun™ (2% Xylancin) per animal. Body temperatures were maintained at 37°C by means of a rectal thermometer and a heating system.
A midline scalp incision was made and the saggital and coronal sutures identified. A burr hole 3 mm in diameter was drilled 2 mm to the left of the saggital suture and 1 mm posterior to the coronal suture. Using an operating microscope, the dura was incised and a blunt, pre-manufactured plastic tip (ca. 6.0 mm long) was carefully inserted 0.8 mm deep into the subdural space. Rapid-curing cyanoacrylate glue (Histoacryl) was used to seal the burr hole and secure the position of the plastic tip. […]
The edema formation was assessed 24 hours after surgery. […] The wet weight of both hemispheres was determined and after drying for 24 hours at 110°C the dry weights were determined. Based on the increase in tissue water content, tissue swelling (i.e., increase in volume) may be calculated employing the following (modified) equation: (ΔDW(%))/(DWε)× 100(%Swelling) [formula] where DW % is the difference in tissue dry weight between the normal and edematous brain, and DW the dry weight (%) of the edematous brain.

pKi: −log10 of the molar value. Like-named read-outs stand apart in the source and are kept apart here.

Sequence of MMP-9 (P14780 94-707): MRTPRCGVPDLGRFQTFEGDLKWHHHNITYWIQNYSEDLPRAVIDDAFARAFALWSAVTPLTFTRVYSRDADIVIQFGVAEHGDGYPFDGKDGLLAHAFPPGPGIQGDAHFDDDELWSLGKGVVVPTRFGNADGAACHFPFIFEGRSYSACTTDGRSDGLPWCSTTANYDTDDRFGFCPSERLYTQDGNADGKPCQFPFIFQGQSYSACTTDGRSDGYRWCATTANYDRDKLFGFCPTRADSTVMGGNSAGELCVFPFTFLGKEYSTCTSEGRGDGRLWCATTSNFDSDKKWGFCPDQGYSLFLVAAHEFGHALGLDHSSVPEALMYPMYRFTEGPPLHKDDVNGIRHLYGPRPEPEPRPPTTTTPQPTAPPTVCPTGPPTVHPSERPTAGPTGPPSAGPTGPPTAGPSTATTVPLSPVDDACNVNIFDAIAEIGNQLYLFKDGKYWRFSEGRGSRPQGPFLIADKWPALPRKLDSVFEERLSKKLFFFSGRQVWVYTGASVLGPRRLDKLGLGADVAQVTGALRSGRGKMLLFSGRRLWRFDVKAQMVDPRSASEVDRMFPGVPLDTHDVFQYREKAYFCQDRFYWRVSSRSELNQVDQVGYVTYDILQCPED
Sequence of MMP-3 (P08254 100-274 limits assumed): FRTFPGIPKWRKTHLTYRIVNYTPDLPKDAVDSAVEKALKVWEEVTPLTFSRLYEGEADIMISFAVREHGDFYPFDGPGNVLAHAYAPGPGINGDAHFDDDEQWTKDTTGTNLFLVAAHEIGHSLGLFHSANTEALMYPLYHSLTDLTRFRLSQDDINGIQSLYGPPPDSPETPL

With `CCOc1ccc(-c2ccc(C(=O)[C@H]3CC[C@@H](Sc4ccccc4)[C@@H]3C(=O)O)cc2)cc1` (racemic) [Example 1], the pKi at MMP-1 (read-out: MMP-1 Ki) was 5.43; on MMP-2, 9.34; at MMP-3 (read-out: MMP-3 Ki), 7.70; on MMP-9 (read-out: MMP-9 Ki), 7.82.

In the case of `CCOc1ccc(-c2ccc(C(=O)CC(CCN3C(=O)c4ccccc4C3=O)C(=O)O)cc2)cc1` (racemic) [Example 3], the pKi is 5.47 at MMP-1 (read-out: MMP-1 Ki), 8.96 at MMP-2 (read-out: MMP-2 Ki), 7.85 on MMP-3 (read-out: MMP-3 Ki) and 9.11 at MMP-9 (read-out: MMP-9 Ki).

Take `O=C(CC(CCn1nnc2ccccc2c1=O)C(=O)O)c1ccc(-c2ccc(Cl)cc2)cc1` (racemic) [Example 6]: the pKi on MMP-1 was 5.62; on MMP-2 (read-out: MMP-2 Ki), 8.92; on MMP-3, 8.21; at MMP-9, 8.52.

With `O=C(CC(CCn1nnc2ccccc2c1=O)C(=O)O)c1ccc(-c2ccc(Cl)cc2)cc1` (single isomer, unassigned; (+)) [Example 5, (+)-4-(4'-Chloro-biphenyl-4-yl)-4-oxo-2-[2-(4-oxo-4H-benzo[d][1,2,3]triazin-3-yl)-ethyl]-butyricacid], in the assay on Wistar rats, the “reduced the increase in tissue water content” value is reported as 38%.

By pKi is commonly meant the negative decadic logarithm of the Ki, by convention in mol/L.

These data come from patent EP1031349A1, “Use of substituted 4-biarylbutyric and 5-biarylpentanoic acid derivatives for the treatment of cerebral diseases” (Bayer Aktiengesellschaft, priority 1999, dated 2000).
